We go through nine molecules from PubChem BioAssay (NCI).

Structures are written as SMILES. Several values for one entry are separate records, joined by “and”; a condition that tells them apart may be missing. Equal values may be shown once.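 Cultured in 96-well plates, cells were exposed to test compound for 48 hours across five concentrations. The concentration for 50% growth inhibition is given as GI50. Definition used: TGI = concentration required for complete inhibition of growth.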 Some results are limits rather than exact numbers.

Test systems include MDA-MB-231 breast; UO-31 renal; IGROV1 ovarian; UACC-257 melanoma; OVCAR-4 ovarian; SNB-19 CNS; HCT-15 colon; SN12C renal; A549 NSCLC; LOX IMVI melanoma.
What all share (assay): growth of human tumour cells (NCI), 48 h

Consider `O=C(Nc1ccncc1)C(=O)c1cn(S(=O)(=O)c2ccc(Cl)cc2)c2ccccc12`, for which the GI50 with MDA-MB-231 breast was 3.69 µM; in the test on UO-31 renal, 9.18 µM; with IGROV1 ovarian, 3.29 µM; with UACC-257 melanoma, 1.1 µM; with OVCAR-4 ovarian, 3.89 µM; in the test on SNB-19 CNS, 5.94 µM. The GI50 was 0.45 µM in the test on HCT-15 colon, 2.02 µM in the test on SN12C renal, 17.5 µM in the test with A549 NSCLC and 0.765 µM with LOX IMVI melanoma. Besides, the TGI is 32.3 µM in the test with MDA-MB-231 breast; > 100 µM with UO-31 renal; > 100 µM with IGROV1 ovarian; > 100 µM with UACC-257 melanoma; > 70.3 µM in the test with OVCAR-4 ovarian; 51.5 µM in the test on SNB-19 CNS. Moreover, the TGI in the test on HCT-15 colon, with SN12C renal, with A549 NSCLC and with LOX IMVI melanoma was > 100 µM in each case.
In the case of `CC1CCCC(C(O)CC2CC(=O)NC(=O)C2)C1O` (stereo not given), the TGI in the test on MDA-MB-231 breast, in the test with UO-31 renal, in the test with IGROV1 ovarian, in the test on UACC-257 melanoma, in the test with OVCAR-4 ovarian and in the test with SNB-19 CNS was > 100 µM each time. The TGI in the test on HCT-15 colon, in the test with SN12C renal, in the test on A549 NSCLC and in the test on LOX IMVI melanoma was > 100 µM throughout.
With `NCCOCCOCCNc1nc(-c2ccccc2)nc(N2CCN(c3ccccn3)CC2)n1`, the GI50 is 14.5 µM with MDA-MB-231 breast; 12.7 µM in the test with UO-31 renal; 18.2 µM in the test on IGROV1 ovarian; 3.23 µM with UACC-257 melanoma; 13.4 µM with OVCAR-4 ovarian; 13.1 µM in the test with HCT-15 colon. Also, the results for the GI50 with SN12C renal, with A549 NSCLC and in the test with LOX IMVI melanoma were 17.1 µM, 14.4 µM and 8.3 µM, respectively. For the same molecule, the TGI in the test on MDA-MB-231 breast was 28.8 µM; in the test with UO-31 renal, 25.8 µM; in the test with IGROV1 ovarian, 34.4 µM; in the test on UACC-257 melanoma, 12.9 µM; in the test on OVCAR-4 ovarian it was 26.3 µM; with HCT-15 colon, 27.9 µM. The figures for the TGI with SN12C renal, in the test on A549 NSCLC and in the test on LOX IMVI melanoma were 32.8 µM, 30.1 µM and 21.3 µM, respectively.
As for `Cc1csc(/C=C/C(=O)c2nnn(-c3ccnc4c(C(F)(F)F)cccc34)c2C)c1`, the GI50 in the test with MDA-MB-231 breast is 29.2 µM; with UO-31 renal, 94.4 µM; with IGROV1 ovarian, > 100 µM; in the test on UACC-257 melanoma, 13.7 µM; in the test on SNB-19 CNS, 72.8 µM; in the test with HCT-15 colon, 57.5 µM. Moreover, the GI50 is 25 µM with SN12C renal, 39.7 µM in the test on A549 NSCLC and 49.1 µM in the test with LOX IMVI melanoma. The TGI in the test with MDA-MB-231 breast is > 100 µM; in the test with UO-31 renal, > 100 µM; in the test with IGROV1 ovarian it was > 100 µM; with UACC-257 melanoma, 60.9 µM; in the test on SNB-19 CNS it was > 100 µM; in the test with HCT-15 colon, > 100 µM. For the same molecule, the TGI with SN12C renal, in the test on A549 NSCLC and in the test on LOX IMVI melanoma was > 100 µM each time.
As for `CCN(CC)c1ccc(C(O)C2=CC(=O)c3ccccc3C2=O)cc1` (stereo not given), the GI50 in the test on MDA-MB-231 breast is 1.53 µM; in the test with UO-31 renal, 2.12 µM; with IGROV1 ovarian it was 1.53 µM; in the test on UACC-257 melanoma, 1.96 µM; in the test on OVCAR-4 ovarian, 1.27 µM; in the test on HCT-15 colon, 3.03 µM. The GI50 was 1.38 µM with SN12C renal, 4.4 µM in the test on A549 NSCLC and 1.14 µM with LOX IMVI melanoma. Besides, the TGI in the test with MDA-MB-231 breast was 4.61 µM; in the test with UO-31 renal, 6.25 µM; in the test on IGROV1 ovarian, 3.07 µM; in the test with UACC-257 melanoma it was 5.02 µM; with OVCAR-4 ovarian, 3.1 µM; in the test with HCT-15 colon it was > 32.1 µM. In addition, the TGI in the test with SN12C renal was 4.83 µM; in the test on A549 NSCLC, 30.9 µM; in the test on LOX IMVI melanoma it was 3.66 µM.
Take `COc1ccc2ccccc2c1C1NC(=O)c2ccccc2N1` (stereo not given): the TGI with MDA-MB-231 breast is > 41.8 µM; in the test with UO-31 renal, 71.2 µM; in the test on IGROV1 ovarian, > 100 µM; with UACC-257 melanoma, > 100 µM; in the test on SNB-19 CNS it was > 100 µM; in the test on HCT-15 colon, 6.21 µM. Moreover, the figures for the TGI with SN12C renal, with A549 NSCLC and in the test on LOX IMVI melanoma were > 82.6 µM, > 51.8 µM and 65.2 µM, respectively.
For `C[n+]1c2cc(N)ccc2cc2ccc(N)cc21`, the GI50 with MDA-MB-231 breast is 1.41 µM [middle of 4 runs]; with IGROV1 ovarian it was 1.46 µM [middle of 4 runs]; in the test with UACC-257 melanoma, 1.79 µM [middle of 4 runs]; in the test on OVCAR-4 ovarian it was 1.34 µM [middle of 4 runs]; with SNB-19 CNS, 933 nM [middle of 4 runs]; with HCT-15 colon, 2.41 µM [middle of 4 runs]. In addition, the GI50 in the test with SN12C renal was 701 nM [middle of 4 runs]; with A549 NSCLC, 256 nM [middle of 4 runs]; in the test on LOX IMVI melanoma, 0.956 µM and 2.26 µM and 1.82 µM. In addition, the TGI in the test on MDA-MB-231 breast is 9.68 µM [middle of 4 runs]; in the test on UACC-257 melanoma it was 3.91 µM [middle of 4 runs]; with SNB-19 CNS, 5.01 µM [middle of 4 runs]; with HCT-15 colon it was 15.2 µM [middle of 4 runs]; in the test on SN12C renal, 4.03 µM [middle of 4 runs]; in the test with LOX IMVI melanoma, 5.52 µM [middle of 4 runs].
Turning to `CCOC(=O)C1c2[nH]c3ccccc3c2CCN1C(=O)c1ccc(OC)o1` (stereo not given), the TGI with MDA-MB-231 breast, in the test with UO-31 renal, in the test on IGROV1 ovarian, in the test on UACC-257 melanoma, with OVCAR-4 ovarian and in the test on SNB-19 CNS was > 10 µM throughout. Further, the TGI with HCT-15 colon, with SN12C renal and in the test on LOX IMVI melanoma was > 10 µM in each case.
For the molecule `CNC(=O)c1ccccc1Nc1nc(Nc2cc(OC)c(OC)c(OC)c2)ncc1Br`, the GI50 with MDA-MB-231 breast is 0.033 µM; in the test on UO-31 renal, < 0.014 µM; with UACC-257 melanoma, 0.0328 µM; with OVCAR-4 ovarian, 0.0287 µM; in the test on SNB-19 CNS, 0.12 µM; with HCT-15 colon, 0.0283 µM. Besides, the GI50 in the test on SN12C renal was 0.0366 µM; in the test with A549 NSCLC, 0.0354 µM; with LOX IMVI melanoma it was 0.0183 µM. Moreover, the TGI in the test with MDA-MB-231 breast turned out to be 0.263 µM; in the test with UO-31 renal, 0.0849 µM; in the test on UACC-257 melanoma it was 3.47 µM; in the test on OVCAR-4 ovarian, 2.4 µM; in the test on SNB-19 CNS, 2.53 µM; in the test on HCT-15 colon, 7.75 µM. In addition, the TGI with SN12C renal was 3.3 µM; in the test on A549 NSCLC, 17.5 µM; in the test on LOX IMVI melanoma, 0.0917 µM.
